Consider 18 molecules from patent publication US20140221340A1 (KYOWA HAKKO KIRIN CO., LTD., priority 2011, published 2014).

The first assay addresses T1, human CCR10 (Homo sapiens, UniProt P46092).
T1 construct: expressed in transfected cells; host or cells: KJMGER8 cell (cell line derived from Namalwa cell); expression induced with 10 nmol/L β-estradiol
T1 sequence (P46092 1-362): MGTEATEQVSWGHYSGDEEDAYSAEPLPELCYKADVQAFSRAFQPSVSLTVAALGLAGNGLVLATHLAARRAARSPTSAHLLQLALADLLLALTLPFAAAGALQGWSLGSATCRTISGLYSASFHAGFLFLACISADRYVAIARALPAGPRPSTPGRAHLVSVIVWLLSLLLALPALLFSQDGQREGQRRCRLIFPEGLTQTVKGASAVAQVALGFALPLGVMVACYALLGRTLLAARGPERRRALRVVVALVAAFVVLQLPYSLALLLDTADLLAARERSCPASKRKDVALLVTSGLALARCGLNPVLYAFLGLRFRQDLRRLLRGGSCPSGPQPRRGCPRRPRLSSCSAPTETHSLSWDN
Description: Calcium assay of human CCR10 (inhibition of CTACK-induced increase in intracellular calcium ion concentration in hCCR10G16 cells). The assay is classed as cell-based. The settings on record: test compound 100 nmol/L; human recombinant CTACK; hCCR10G16 cells (KJMGER8/Namalwa-derived, Gα16 co-expressed); FLIPR or FDSS. As to the method:
A CCR10-inducible expression plasmid was produced according to a known method (“Analytical Biochemistry”, 2006, vol. 400, page 163). A DNA encoding human CCR10 was obtained by PCR. Using human chromosomal DNA (100 ng; manufactured by Clontech Laboratories, Inc.) as a template, a synthetic DNA having the sequences shown by SEQ ID NOs: 1 and 2 as a human CCR10 cDNA specific primer, and Pyrobest DNA Polymerase (manufactured by TAKARA SHUZO CO. LTD.) as an enzyme, a DNA encoding human CCR10 was obtained by PCR. As a buffer solution for PCR, the buffer solution attached to the enzyme was diluted 10-fold with deionized water and used. Using Thermal Cycler DNA Engine (manufactured by MJ Research), PCR was performed by 35 cycles of reactions composed of an incubation at 90° C. for 2 min, at 94° C. for 30 seconds, at an anneal temperature of 58° C. for 30 seconds, and at 72° C. for 1 min.
The amplified PCR fragment was cleaved with HindIII and NotI, then a human CCR10 DNA fragment was recovered by an agarose gel electrophoresis method. The fragment was incorporated in between the corresponding restriction enzyme sites (HindIII-NotI) of an inducible expression vector, whereby a human CCR10-inducible expression plasmid were prepared.
Using a primer specific to the sequence of the plasmid (synthetic DNA having the sequences shown by SEQ ID NOs: 3 and 4), the sequence of human CCR10 DNA region was determined. For the determination of the base sequence, DNA sequencer 377 (manufactured by PerkinElmer) and a reaction kit (ABI Prism (registered trade mark) BigDye (registered trade mark) Terminator Cycle Sequencing Ready Reaction kit: manufactured by Applied Biosystems) were used. The sequence of human CCR10 DNA matched with the sequence (NM_016602) registered in GenBank.
Cells for the detection of the signal from human CCR10 by a calcium assay were prepared. Human CCR10-inducible expressing cells whose host cell is KJMGER8 cell (cell line derived from Namalwa cell) were prepared according to a known method (“Analy Biochem”, 2006, vol. 400, page 163). Human CCR10-inducible expression plasmid produced above and Gα16 expression plasmid were co-transfected into KJMGER8 cell by an electroporation method (“Cytotechnology”, 1990, vol. 3, page 133), whereby a signal from human CCR10 could be detected by a calcium assay (hereinafter to be referred to as hCCR10G16 cell). Gα16 expression plasmid was produced by incorporating human Gα16 DNA into expression vector pAMoh (WO03/087366). Induced expression of human CCR10 was performed by cultivating hCCR10G16 cells in the presence of 10 nmol/L β-estradiol (manufactured by Sigma Ltd.) for 24 hr.
Cells expressing human CCR10 induced by the above-mentioned method were suspended in RPMI1640 medium and adjusted to cell density of 1.25×10^6 cells/mL. This mixture was dispensed to a 384 well clear bottom plate (manufactured by Corning Incorporated) at 20 μL/well, and these were incubated at 37° C. for several dozen minutes. A loading buffer prepared according to the protocol attached to FLIPR Calcium 3 assay kit (manufactured by Molecular Device) was dispensed to this plate at 20 μL/well, and the plate was incubated at 37° C. for 60 min. A 33 μmol/L DMSO solution of the test compound was diluted 37-fold with RPMI1640 medium and the resulting solution was added at 5 μL/well, and the mixture was incubated at 37° C. for 30 min. 300 nmol/L human recombinant CTACK (manufactured by R and D Systems) diluted with RPMI1640 medium containing 1 w/v % bovine serum albumin was added at 5 μL/well. Change of the intracellular calcium ion concentration for about 5 min after the addition was measured by FLIPR (manufactured by Molecular Device) or FDSS (manufactured by Hamamatsu Photonics K.K.). The difference between the maximum fluorescence intensity and the minimum fluorescence intensity for 5 min was calculated, and taken as the measurement value (maximum fluorescence intensity−minimum fluorescence intensity). […]
In the case of `Cc1cc(Cl)ccc1Nc1c(C(=O)N2CCC3(CC2)OCc2ccccc23)cnc2c(S(=O)(=O)NC(=O)C3CC3)cnn12` [a-46], the “Inhibitory rate (%) for an increase in calcium ion concentration” value was more than 100%.

Staying with this assay, now noted: test compound 100 nmol/L; human recombinant CTACK; hCCR10G16 cells (KJMGER8/Namalwa-derived, Gα16 co-expressed); FLIPR or FDSS; read-out: Inhibitory rate (%) for an increase in calcium ion concentration.
In the case of `COC(=O)NS(=O)(=O)c1cnn2c(Nc3ccccc3Cl)c(C(=O)N3CCC(c4ccccc4)CC3)cnc12` [a-8, Methyl 7-(2-chlorophenylamino)-6-(4-phenylpiperidine-1-carbonyl)pyrazolo[1,5-a]pyrimidin-3-ylsulfonylcarbamate], the inhibition at 0.1 µM was found to be 99.6%.

Consider `CCNS(=O)(=O)c1cnn2c(Nc3ccc(F)cc3C)c(C(=O)N3CCC(c4ccc(F)cc4)CC3)cnc12` [a-3, N-Ethyl-7-(4-fluoro-2-methylphenylamino)-6-[4-(4-fluorophenyl)piperidine-1-carbonyl]pyrazolo[1,5-a]pyrimidine-3-sulfonamide], for which the inhibition at 0.1 µM is more than 100%.

On to `CCNC(=O)NS(=O)(=O)c1cnn2c(Nc3cc(C)ccc3Cl)c(C(=O)N3CCC4(CC3)OCc3ccccc34)cnc12` [a-44, 7-(2-Chloro-5-methylphenylamino)-N-(ethylcarbamoyl)-6-[3H-spiro(isobenzofuran-1,4′-piperidine)-1′-carbonyl]pyrazolo[1,5-a]pyrimidine-3-sulfonamide], for which the inhibition at 0.1 µM amounted to 95.2%.

On to `O=C(NS(=O)(=O)c1cnn2c(Nc3ccccc3Cl)c(C(=O)N3CCC(c4ccccc4)CC3)cnc12)C1CC1` [a-6, N-[7-(2-Chlorophenylamino)-6-(4-phenylpiperidine-1-carbonyl)pyrazolo[1,5-a]pyrimidin-3-ylsulfonyl]cyclopropanecarboxamide], for which the inhibition at 0.1 µM is 98.9%.

With `CCNS(=O)(=O)c1cnn2c(Nc3ccc(Cl)cc3C)c(C(=O)N3CCC(c4ccc(F)cc4)CC3)cnc12` [a-16, N-Ethyl-7-(4-chloro-2-methylphenylamino)-6-[4-(4-fluorophenyl)piperidine-1-carbonyl]pyrazolo[1,5-a]pyrimidine-3-sulfonamide], the inhibition at 0.1 µM is more than 100%.

In the case of `CCNC(=S)NS(=O)(=O)c1cnn2c(Nc3ccc(F)cc3C)c(C(=O)N3CCC(c4ccccc4)CC3)cnc12` [a-69, N-Ethylcarbamothioyl-7-(4-fluoro-2-methylphenylamino)-6-(4-phenylpiperidine-1-carbonyl)pyrazolo[1,5-a]pyrimidine-3-sulfonamide], the inhibition at 0.1 µM came to 81.8%.

With `O=C(NS(=O)(=O)c1cnn2c(Nc3ccccc3Cl)c(C(=O)N3CCC(c4ccc(F)cc4)CC3)cnc12)C1CC1` [a-9, N-{7-(2-Chlorophenylamino)-6-[4-(4-fluorophenyl)piperidine-1-carbonyl]pyrazolo[1,5-a]pyrimidin-3-ylsulfonyl}cyclopropanecarboxamide], the inhibition at 0.1 µM stood at 80.6%.

Turning to `Cc1cc(Nc2c(C(=O)N3CCC(c4ccc(F)cc4)CC3)cnc3c(S(=O)(=O)NC(=O)C4CC4)cnn23)c(Cl)cc1F` [a-41, N-{7-(2-Chloro-4-fluoro-5-methylphenylamino)-6-[4-(4-fluorophenyl)piperidine-1-carbonyl]pyrazolo[1,5-a]pyrimidin-3-ylsulfonyl}cyclopropanecarboxamide], the inhibition at 0.1 µM was more than 100%.

`CCC(=O)NS(=O)(=O)c1cnn2c(Nc3cc(Cl)ccc3Cl)c(C(=O)N3CCC4(CC3)OCc3ccccc34)cnc12` [a-53, N-{7-(2,5-Dichlorophenylamino)-6-[3H-spiro(isobenzofuran-1,4′-piperidine)-1′-carbonyl]pyrazolo[1,5-a]pyrimidin-3-ylsulfonyl}propionamide]: the inhibition at 0.1 µM was more than 100%.

With `O=C(NS(=O)(=O)c1cnn2c(Nc3cc(Cl)ccc3Cl)c(C(=O)N3CCC4(CC3)OCc3ccccc34)cnc12)C1CC1` [a-54, N-{7-(2,5-Dichlorophenylamino)-6-[3H-spiro(isobenzofuran-1,4′-piperidine)-1′-carbonyl]pyrazolo[1,5-a]pyrimidin-3-ylsulfonyl}cyclopropanecarboxamide], the inhibition at 0.1 µM was more than 100%.

As to `CC(=O)NS(=O)(=O)c1cnn2c(Nc3cccc(Cl)c3Cl)c(C(=O)N3CCC(c4ccc(F)cc4)CC3)cnc12` [a-38, N-{7-(2,3-Dichlorophenylamino)-6-[4-(4-fluorophenyl)piperidine-1-carbonyl]pyrazolo[1,5-a]pyrimidin-3-ylsulfonyl}acetamide], the inhibition at 0.1 µM was more than 100%.

`CCNC(=O)NS(=O)(=O)c1cnn2c(Nc3cc(F)ccc3Cl)c(C(=O)N3CCC(c4ccc(F)cc4)CC3)cnc12` [a-30, 7-(2-Chloro-5-fluorophenylamino)-N-(ethylcarbamoyl)-6-[4-(4-fluorophenyl)piperidine-1-carbonyl]pyrazolo[1,5-a]pyrimidine-3-sulfonamide]: the inhibition at 0.1 µM is more than 100%.

With `COCCNS(=O)(=O)c1cnn2c(Nc3ccccc3Cl)c(C(=O)N3CCC(c4ccc(F)cc4)CC3)cnc12` [a-11, 7-(2-Chlorophenylamino)-6-[4-(4-fluorophenyl)piperidine-1-carbonyl]-N-(2-methoxyethyl)pyrazolo[1,5-a]pyrimidine-3-sulfonamide], the inhibition at 0.1 µM stood at 28.9%.

With `Cc1cc(F)ccc1Nc1c(C(=O)N2CCC(c3ccc(F)cc3)CC2)cnc2c(S(=O)(=O)NC3CC3)cnn12` [a-5, N-Cyclopropyl-7-(4-fluoro-2-methylphenylamino)-6-[4-(4-fluorophenyl)piperidine-1-carbonyl]pyrazolo[1,5-a]pyrimidine-3-sulfonamide], the inhibition at 0.1 µM is more than 100%.

As to `CCNC(=O)NS(=O)(=O)c1cnn2c(Nc3ccc(F)cc3C)c(C(=O)N3CCC4(CC3)OCc3ccccc34)cnc12` [a-43, 7-(4-Fluoro-2-methylphenylamino)-N-(ethylcarbamoyl)-6-[3H-spiro(isobenzofuran-1,4′-piperidine)-1′-carbonyl]pyrazolo[1,5-a]pyrimidine-3-sulfonamide], the inhibition at 0.1 µM stood at 92%.

As to `CC(=O)NS(=O)(=O)c1cnn2c(Nc3cc(F)ccc3F)c(C(=O)N3CCC(c4ccc(F)cc4)CC3)cnc12` [a-35, N-{7-(2,5-Difluorophenylamino)-6-[4-(4-fluorophenyl)piperidine-1-carbonyl]pyrazolo[1,5-a]pyrimidin-3-ylsulfonyl}acetamide], the inhibition at 0.1 µM is more than 100%.

In the case of `CCNC(=O)NS(=O)(=O)c1cnn2c(Nc3cc(Cl)ccc3F)c(C(=O)N3CCC(c4ccc(F)cc4)CC3)cnc12` [a-34, 7-(5-Chloro-2-fluorophenylamino)-N-(ethylcarbamoyl)-6-[4-(4-fluorophenyl)piperidine-1-carbonyl]pyrazolo[1,5-a]pyrimidine-3-sulfonamide], the inhibition at 0.1 µM was more than 100%.
